# Measurements from EP4678639A1, “SALT OF BENZIMIDAZOLE DERIVATIVE” (JW Pharmaceutical Corporation, priority 2023, dated 2024).
# Entries after “also recorded” stand apart in the source; their conditions may differ. Structures can show the parent of a compound that is named as a salt.
# Tests used:
# [1] = Photostability test, ultraviolet light (200 W·hr/m2) exposure; settings: for After Ultraviolet Light Exposure (200 W hr/m2)(%) Degradant / After Ultraviolet Light Exposure (200 W hr/m2)(%) Total Related substances: Table 10, UV 200 W·hr/m2, PE bag; for Change (%) Degradant: Table 10, after UV exposure vs initial; for Initial (%) Degradant / Initial (%) Total Related substances: Table 10, initial; for Change in Quality (%) Light (Ultraviolet) Degradant / Change in Quality (%) Light (Ultraviolet) Purity: Table 12 summary
# Method: (§1) A photostability comparative test was conducted on each of the above-mentioned prepared tegoprazan acid addition salts. The test was conducted by exposing the sample to light with an energy of 200 W hr/m^2 of ultraviolet light and 1.2 Mlux hr of visible light in accordance with The International Council for Harmonisation of Technical Requirements for Pharmaceuticals for Human Use (ICH) guideline, with the samples packaged in a single PE bag and spread thinly enough to ensure exposure to the light source, taking humidity stability into consideration. The purity of the acid addition salts and the change in the amount of degradants at the initial time point and after exposure to ultraviolet light or visible light were measured by HPLC.
# [2] = Solid-state accelerated stability test (40 ± 2 °C/RH 75 ± 5 %); settings: for Change (%) Degradant: 1 month vs initial; for Initial (%) Degradant: degradant of Formula 4; for Change in Quality (%) Accelerated (4 weeks) Degradant / Change in Quality (%) Accelerated (4 weeks) Purity: Table 12 summary
# Method: (§2) Operation and Calculation: The blank solution, standard solution, and test solution were sequentially tested under the instrument operating conditions according to the liquid chromatography method in the General Test Methods of the 12th Edition of the Korean Pharmacopoeia, and the amount of related substances was calculated using the following equation. Amount of each related; substance (%) = (AT)/(AS) × (CS)/(CT) × (Molecular weight; of the sample)/(Molecular weight; of the standard; product) × P × (1)/(RR; F) [formula] AT = Area of each related substance peak obtained from the test solution AS = Area of the tegoprazan peak obtained from the standard solution CS = Concentration of standard solution (mg/mL) CT = Concentration of test solution (mg/mL) P = Purity/Assay/Potency (%) of standard product RRF = Relative response factor (1.0)
# (§3) A solid-state stability comparative test was conducted on each of the above-mentioned prepared tegoprazan acid addition salts. The stability comparative test was conducted for 1 month under the conditions shown in Table 6 below in accordance with The International Council for Harmonisation of Technical Requirements for Pharmaceuticals for Human Use (ICH) guideline, and the purity of the acid addition salt, total related substances, and the content of degradants were measured by HPLC at the initial time point and after 1 month. Total related substances and degradants were measured according to the related substance test method (HPLC).
# [3] = Photostability test, visible light (1.2 Mlux·hr) exposure; settings: for Change (%) Degradant: Table 11, after exposure vs initial; for Initial (%) Degradant / Initial (%) Total Related substances: Table 11, initial; for After (%) Degradant / After (%) Total Related substances: Table 11 under heading Visible Light (1.2 Mlux-hr) Exposure Test; for Change in Quality (%) Light (Visible) Degradant: Table 12 summary
# Method: as §1
# [4] = Solid-state stress stability test (temperature 60 °C); settings: for Change (%) Degradant: 1 month vs initial; for Initial (%) Degradant / Initial (%) Total Related substances: Table 8, initial; for Change in Quality (%) 60 °C (4 weeks) Degradant / Change in Quality (%) 60 °C (4 weeks) Purity: Table 12 summary
# Method: as §2, §3
# 2) Stress Stability Test (temperature 60 °C)
# [5] = Liquid stability comparative test (20 mg/mL in purified water, 40 °C, 24 hours, HPLC); type: physicochemical; settings: for After 24 hours Purity (%) / Initial Purity (%) / After 24 hours Degradant (%) / Initial Degradant (%): 20 mg/mL in purified water; for After 24 hours Purity (%) / After 24 hours Degradant (%): 40 °C; for Initial Purity (%) / Initial Degradant (%): initial time point; for After 24 hours Degradant (%) / Initial Degradant (%): degradant of Formula 4; for solid precipitation / solution state: stored at 40 °C for 24 hours
# Method: The analysis conditions are as follows.
# Each sample was dissolved in purified water to prepare a solution with a concentration of 20 mg/mL, stored at an external temperature of 40 °C, and analyzed by HPLC at the initial time point and after 24 hours to measure purity, and the change in the generated degradant (Formula 4) was measured. The analysis of total related substances and degradants was performed by taking a liquid from a solution prepared at a concentration of 20 mg/mL, diluting it to a concentration of 4 mg/mL with the diluent of the related substance test method (HPLC), and measuring it as a test solution, and analyzing it according to the related substance test method (HPLC).
# [6] = Solid-state stress stability test (humidity 90 % RH); settings: for absorb moisture and deliquesce / melted / Remarks: 90 % RH; for Remarks: 1 month, state of the solid; for Initial (%) Degradant / Initial (%) Total Related substances: Table 9, initial; for Change in Quality (%) 90 % RH (4 weeks) Degradant / Change in Quality (%) 90 % RH (4 weeks) Purity: Table 12 summary
# Method: as §2, §3
# 3) Stress Stability (humidity 90 % RH)
# [7] = 40 ± 2 °C / RH 75 ± 5 %, 1 month
structure (smiles),measurement,setting,value
Cc1nc2c(O[C@H]3CCOc4cc(F)cc(F)c43)cc(C(=O)N(C)C)cc2[nH]1 [Malate Salt],After Ultraviolet Light Exposure (200 W hr/m2)(%) Degradant,[1],0.011%
same,After Ultraviolet Light Exposure (200 W hr/m2)(%) Total Related substances,[1],0.172%
same,Change (%) Degradant,[1],0.007%
same,Initial (%) Degradant,[1],0.004%
same,Initial (%) Total Related substances,[1],0.146%
same,Change in Quality (%) Light (Ultraviolet) Degradant,[1],0.007%
same,After 1 Month (%) Degradant,[2]; [7],0.049%
same,After 1 Month (%) Total Related substances,[2]; [7],0.236%
same,Change (%) Degradant,[2]; 40 ± 2 °C / RH 75 ± 5 %,0.045%
same,Initial (%) Total Related substances,"[2]; Table 7, initial",0.146%
same,Initial (%) Degradant,"[2]; Table 7, initial",0.004%
same,Change in Quality (%) Accelerated (4 weeks) Degradant,[2],0.045%
same,Change in Quality (%) Accelerated (4 weeks) Purity,[2],-0.090%
same,purity change after 1 month,[2]; accelerated stability,≤ 0.1%
same,Change (%) Degradant,[3],0.031%
same,Initial (%) Degradant,[3],0.004%
same,Initial (%) Total Related substances,[3],0.146%
same,After (%) Degradant,[3],0.035%
same,After (%) Total Related substances,[3],0.263%
same,Change in Quality (%) Light (Visible) Degradant,[3],0.031%
same,After 1 Month (%) Degradant,"[4]; 60 °C, 1 month",1.320%
same,After 1 Month (%) Total Related substances,"[4]; 60 °C, 1 month",2.026%
same,Change (%) Degradant,[4]; 60 °C,1.316%
same,Initial (%) Degradant,[4],0.004%
same,Initial (%) Total Related substances,[4],0.146%
same,Change in Quality (%) 60 °C (4 weeks) Degradant,[4],1.316%
same,Change in Quality (%) 60 °C (4 weeks) Purity,[4],-1.880%
same,After 24 hours Purity (%),[5],Solid precipitated
same,Initial Purity (%),[5],99.98%
same,After 24 hours Degradant (%),[5],Solid precipitated
same,solid precipitation / solution state,[5],solid precipitation; also recorded: solids were precipitated
same,absorb moisture and deliquesce / melted,[6],absorb moisture and deliquesce; also recorded: melted
same,Remarks,[6],Melted
same,Initial (%) Degradant,[6],0.004%
same,Initial (%) Total Related substances,[6],0.146%
same,Change in Quality (%) 90 % RH (4 weeks) Degradant,[6],Melted
same,Change in Quality (%) 90 % RH (4 weeks) Purity,[6],Melted
Cc1nc2c(O[C@H]3CCOc4cc(F)cc(F)c43)cc(C(=O)N(C)C)cc2[nH]1 [Methanesulfonate Salt (Amorphous Form)],After Ultraviolet Light Exposure (200 W hr/m2)(%) Degradant,[1],0.366%
same,After Ultraviolet Light Exposure (200 W hr/m2)(%) Total Related substances,[1],0.599%
same,Change (%) Degradant,[1],0.082%
same,Initial (%) Degradant,[1],0.284%
same,Initial (%) Total Related substances,[1],0.530%
same,Change in Quality (%) Light (Ultraviolet) Degradant,[1],0.082%
same,Change in Quality (%) Light (Ultraviolet) Purity,[1],0.069%
same,After 1 Month (%) Degradant,[2]; [7],1.124%
same,After 1 Month (%) Total Related substances,[2]; [7],1.653%
same,Change (%) Degradant,[2]; 40 ± 2 °C / RH 75 ± 5 %,0.840%
same,Initial (%) Total Related substances,"[2]; Table 7, initial",0.530%
same,Initial (%) Degradant,"[2]; Table 7, initial",0.284%
same,Change in Quality (%) Accelerated (4 weeks) Degradant,[2],0.840%
same,Change in Quality (%) Accelerated (4 weeks) Purity,[2],-1.123%
same,increase in total related substances after 1 month,[2]; accelerated stability,≥ 0.3%
same,Change (%) Degradant,[3],0.154%
same,Initial (%) Degradant,[3],0.284%
same,Initial (%) Total Related substances,[3],0.530%
same,After (%) Degradant,[3],0.438%
same,After (%) Total Related substances,[3],0.909%
same,Change in Quality (%) Light (Visible) Degradant,[3],0.154%
same,total related substances increased after 1 month,[4]; 60 °C,≥ 5.0%
same,After 1 Month (%) Degradant,"[4]; 60 °C, 1 month",9.245%
same,After 1 Month (%) Total Related substances,"[4]; 60 °C, 1 month",12.245%
same,"change in appearance, change in the color of the solid","[4]; 60 °C, 1 month",change in appearance
same,Change (%) Degradant,[4]; 60 °C,8.961%
same,Remarks,"[4]; 60 °C, 1 month, appearance",Discolorat ion
same,Initial (%) Degradant,[4],0.284%
same,Initial (%) Total Related substances,[4],0.530%
same,Change in Quality (%) 60 °C (4 weeks) Degradant,[4],8.961%
same,After 24 hours Purity (%),[5],99.34%
same,Initial Purity (%),[5],99.90%
same,After 24 hours Degradant (%),[5],0.552%
same,Initial Degradant (%),[5],0.063%
same,Amount of Change Degradant (%),[5]; initial vs after 24 hours at 40 °C,0.49%
same,absorb moisture and deliquesce / melted,[6],absorb moisture and deliquesce
same,Remarks,[6],Melted
same,Initial (%) Degradant,[6],0.284%
same,Initial (%) Total Related substances,[6],0.530%
same,Change in Quality (%) 90 % RH (4 weeks) Degradant,[6],Melted
same,Change in Quality (%) 90 % RH (4 weeks) Purity,[6],Melted
Cc1nc2c(O[C@H]3CCOc4cc(F)cc(F)c43)cc(C(=O)N(C)C)cc2[nH]1 [Phosphate Salt],After Ultraviolet Light Exposure (200 W hr/m2)(%) Degradant,[1],0.096%
same,After Ultraviolet Light Exposure (200 W hr/m2)(%) Total Related substances,[1],0.277%
same,Change (%) Degradant,[1],0.011%
same,Initial (%) Degradant,[1],0.085%
same,Initial (%) Total Related substances,[1],0.254%
same,After 1 Month (%) Degradant,[2]; [7],0.205%
same,After 1 Month (%) Purity,[2]; [7],99.6%
same,After 1 Month (%) Total Related substances,[2]; [7],0.327%
same,Change (%) Degradant,[2]; 40 ± 2 °C / RH 75 ± 5 %,0.120%
same,Initial (%) Purity,"[2]; Table 7, initial",99.7%
same,Initial (%) Total Related substances,"[2]; Table 7, initial",0.254%
same,Initial (%) Degradant,"[2]; Table 7, initial",0.085%
same,Change (%) Degradant,[3],0.055%
same,Initial (%) Degradant,[3],0.085%
same,Initial (%) Total Related substances,[3],0.254%
same,After (%) Degradant,[3],0.140%
same,After (%) Total Related substances,[3],0.449%
same,After 1 Month (%) Degradant,"[4]; 60 °C, 1 month",1.668%
same,After 1 Month (%) Total Related substances,"[4]; 60 °C, 1 month",2.423%
same,Change (%) Degradant,[4]; 60 °C,1.583%
same,Initial (%) Degradant,[4],0.085%
same,Initial (%) Total Related substances,[4],0.254%
same,After 24 hours Purity (%),[5],Solid precipitated
same,Initial Purity (%),[5],99.97%
same,After 24 hours Degradant (%),[5],Solid precipitated
same,Initial Degradant (%),[5],0.010%
same,solid precipitation / solution state,[5],solid precipitation
same,absorb moisture and deliquesce / melted,[6],absorb moisture and deliquesce
same,Remarks,[6],Melted
same,Initial (%) Degradant,[6],0.085%
same,Initial (%) Total Related substances,[6],0.254%
Cc1nc2c(O[C@H]3CCOc4cc(F)cc(F)c43)cc(C(=O)N(C)C)cc2[nH]1 [Pidolate Salt],After Ultraviolet Light Exposure (200 W hr/m2)(%) Degradant,[1],0.020%
same,After Ultraviolet Light Exposure (200 W hr/m2)(%) Total Related substances,[1],0.266%
same,Change (%) Degradant,[1],0.019%
same,Initial (%) Degradant,[1],0.001%
same,Initial (%) Total Related substances,[1],0.145%
same,Change in Quality (%) Light (Ultraviolet) Degradant,[1],0.019%
same,Change in Quality (%) Light (Ultraviolet) Purity,[1],0.121%
same,After 1 Month (%) Degradant,[2]; [7],0.003%
same,After 1 Month (%) Total Related substances,[2]; [7],0.146%
same,Change (%) Degradant,[2]; 40 ± 2 °C / RH 75 ± 5 %,0.002%
same,Initial (%) Total Related substances,"[2]; Table 7, initial",0.145%
same,Initial (%) Degradant,"[2]; Table 7, initial",0.001%
same,Change in Quality (%) Accelerated (4 weeks) Degradant,[2],0.002%
same,Change in Quality (%) Accelerated (4 weeks) Purity,[2],-0.001%
same,purity change after 1 month,[2]; accelerated stability,≤ 0.1%
same,Change (%) Degradant,[3],0.067%
same,Initial (%) Degradant,[3],0.001%
same,Initial (%) Total Related substances,[3],0.145%
same,After (%) Degradant,[3],0.068%
same,After (%) Total Related substances,[3],0.463%
same,Change in Quality (%) Light (Visible) Degradant,[3],0.067%
same,After 1 Month (%) Degradant,"[4]; 60 °C, 1 month",0.088%
same,After 1 Month (%) Total Related substances,"[4]; 60 °C, 1 month",0.353%
same,Change (%) Degradant,[4]; 60 °C,0.087%
same,Initial (%) Degradant,[4],0.001%
same,Initial (%) Total Related substances,[4],0.145%
same,Change in Quality (%) 60 °C (4 weeks) Degradant,[4],0.087%
same,Change in Quality (%) 60 °C (4 weeks) Purity,[4],-0.208%
same,After 24 hours Purity (%),[5],Solid precipitated
same,Initial Purity (%),[5],99.98%
same,After 24 hours Degradant (%),[5],Solid precipitated
same,solid precipitation / solution state,[5]; listed as pidolate,a solid precipitated
same,solid precipitation / solution state,[5]; listed as pidolate salt,solid precipitation; also recorded: solids were precipitated
same,Remarks,[6],Melted
same,absorb moisture and deliquesce / melted,[6]; listed as pidolate,deliquesced
same,absorb moisture and deliquesce / melted,[6]; listed as pidolate salt,absorb moisture and deliquesce; also recorded: melted
same,Initial (%) Degradant,[6],0.001%
same,Initial (%) Total Related substances,[6],0.145%
same,Change in Quality (%) 90 % RH (4 weeks) Degradant,[6],Melted
same,Change in Quality (%) 90 % RH (4 weeks) Purity,[6],Melted
